Experimental data reported in patent US20230113378A1, “Methods Of Treating Multiple Sclerosis” (priority 2021, published 2023).
Where “and” joins values, the source holds several entries; their conditions need not be identical. Equal values may be shown once. Entries after “also recorded” stand apart in the source; their conditions may differ.

What was measured:
[1] = system: SARS-CoV-2 anti-spike-protein (spike) antibody; assay: SARS-CoV-2 anti-spike IgG ELISA before and after COVID-19 vaccination in RMS patients on ponesimod (study AC-058B202); assay type: in vivo, human
Procedure: (§1) Participants in this study receiving 20 mg ponesimod who reported COVID-19 vaccination were analyzed. Blood samples collected before and at least 3 weeks after COVID-19 vaccination were tested for SARS-CoV-2 anti-spike-protein (spike) antibody concentrations (Human SARS-CoV-2 PreSpike IgG ELISA, Nexelis). Response to vaccination was defined as seroconversion in case of negative pre-vaccination antibody testing, or a 4-fold antibody concentration increase in case of positive pre-vaccination antibody result. COVID-19 infection adverse events (AEs) were evaluated in this study sub-population.
Of the 134 participants, 49 participants had both pre- and post-vaccination blood samples tested for anti-spike antibody concentrations. Out of these 49 participants, 40 (81.6%) met the pre-specified definition of response to COVID-19 vaccination. […] Response was defined as pre-vaccination titer≤lower limit of quantification (LLOQ) and post-vaccination titer >LLOQ; or pre-vaccination titer >LLOQ (i.e., seroconversion in case of negative pre-vaccination antibody testing) and post-vaccination titer >4× increase (i.e., a 4-fold antibody concentration increase in case of positive pre-vaccination antibody result).
Patients in the Phase 2 extension study AC-058B202 receiving ponesimod 20 mg who reported COVID-19 vaccination were included in this analysis. Blood samples collected before and at least 3 weeks after vaccination were evaluated with Human SARS-CoV-2 PreSpike IgG (spike antibody) enzyme-linked immunoassay (Nexelis). A responder to vaccination was defined as seroconversion in case of negative pre-vaccination antibody testing, or a 4-fold antibody concentration increase in case of positive pre-vaccination antibody result. Responder analysis was performed by vaccine type, and by pre-vaccination lymphocyte count.

[2] = COVID-19 infection adverse events in vaccinated RMS patients on ponesimod (study AC-058B202); assay type: in vivo, human
Procedure: as §1

influenza A/PR/8/34 = assay: Neutralizing antibody response to inactivated influenza A/PR/8/34 immunization in mice on ponesimod chow; assay type: in vivo, female BALB/c mice
From the text: The neutralizing antibody response to a single intramuscular injection of purified and inactivated influenza A/PR/8/34 was compared in female BALB/c mice that were maintained on different oral ponesimod regimens (Group 1: standard chow; Group 2: continuous specialty chow with ponesimod at 1000 ppm; Group 3: specialty chow with a 4-day discontinuation around immunization).
Mean percentage inhibition of viral infection by A/PR/8/34 with serum samples, ±SEM.
Table 5 presents data regarding dilution from neat serum that results in 50% inhibition of viral infection (ID50).

influenza vaccine = details: observed previously; cited from earlier work
[3] = inactivated virus vaccines, post-vaccination
[4] = inactivated virus vaccines, pre-vaccination
[5] = mRNA vaccines, post-vaccination
[6] = mixed vaccines, post-vaccination
[7] = mixed vaccines, pre-vaccination
[8] = subjects pre-vaccination negative
[9] = subjects pre-vaccination positive
[10] = unspecified vaccines, post-vaccination
[11] = unspecified vaccines, pre-vaccination
[12] = viral vector vaccines, post-vaccination

CCC/N=C1\S/C(=C\c2ccc(OC[C@H](O)CO)c(Cl)c2)C(=O)N1c1ccccc1C [ponesimod, (R)-5-[3-chloro-4-(2,3-dihydroxy-propoxy)-benz[Z]ylidene]-2-([Z]-propylimino)-3-o-tolyl-thiazolidin-4-one]
Fold increase from baseline of S binding antibody, geometric mean (95% CI) ([1]; all vaccines, 1st vaccine regimen, ponesimod 20 mg): 12.90 (7.64; 21.78) | Responders (n/N) (%) (95% CI) ([1]; all vaccines, seroconversion or >4-fold increase): 40 (81.6%) n/N (%) | Fold increase from baseline, geometric mean (95% CI) ([1]; inactivated virus vaccines): 1.29 (0.50; 3.32) | Responders (n/N) (%) (95% CI) ([1]; inactivated virus vaccines): 2 (33.3%) n/N (%) | Positive sample n (%) (95% CI) [1, 3]: 6 (66.7%) (29.93; 92.51) n (%) | S binding antibody concentration, geometric mean (95% CI) [1, 3]: 84.22 (<LLOQ; 189.22) EU/mL | Positive sample n (%) (95% CI) [1, 4]: 3 (50.0%) (11.81; 88.19) n (%) | S binding antibody concentration, geometric mean (95% CI) [1, 4]: 65.88 (<LLOQ; 203.92) EU/mL | Patients meeting antibody concentration responder criteria ([1]; mRNA COVID-19 vaccines and/or pre-vaccination lymphocyte counts ≥500 cells/mm^3): > 90% | Fold increase from baseline, geometric mean (95% CI) ([1]; mRNA vaccines): 20.68 (11.35; 37.68) | Responders (n/N) (%) (95% CI) ([1]; mRNA vaccines): 29 (90.6%) n/N (%) | Positive sample n (%) (95% CI) [1, 5]: 62 (88.6%) (78.72; 94.93) n (%) | S binding antibody concentration, geometric mean (95% CI) [1, 5]: 833.22 (513.88; 1351.00) EU/mL | Positive sample n (%) (95% CI) ([1]; mRNA vaccines, pre-vaccination): 5 (15.6%) (5.28; 32.79) n (%) | Responders n (%) ([1]; mixed or unspecified vaccine types, 4 participants): 4 (100%) n (%) | Fold increase from baseline, geometric mean ([1]; mixed vaccines): 11.49 | Positive sample n (%) [1, 6]: 5 (100.0%) n (%) | S binding antibody concentration, geometric mean [1, 6]: 1525.40 EU/mL | Positive sample n (%) [1, 7]: 1 (33.3%) n (%) | S binding antibody concentration, geometric mean [1, 7]: <LLOQ | SARS-CoV-2 S binding antibody concentration, geometric mean (95% CI) ([1]; post-vaccination, all vaccines, 1st vaccine regimen, ponesimod 20 mg): 621.25 (414.96; 930.08) EU/mL | Positive sample n (%) (95% CI) ([1]; post-vaccination, all vaccines, positive = value > LLOQ): 89 (86.4%)(78.25; 92.37) n (%) | Responders n (%) ([1]; pre-vaccination lymphocyte count <500 cells/mm^3, 16 participants): 9 (56.3%) n (%) | Responders n (%) ([1]; pre-vaccination lymphocyte count ≥500 cells/mm^3, 32 participants): 30 (93.8%) n (%) | Positive sample n (%) (95% CI) ([1]; pre-vaccination, all vaccines, positive = value > LLOQ): 11 (22.4%) (11.77; 36.62) n (%) | Post-vaccination Negative N (%) [1, 8]: 5 (13.2%) N (%) | Post-vaccination Responder N (%) [1, 8]: 33 (86.8%) N (%) | Post-vaccination Positive N (%) ([1]; subjects pre-vaccination negative (seroconversion)): 33 (86.8%) N (%) | Post-vaccination Negative N (%) [1, 9]: 0 N (%) | Post-vaccination Positive N (%) [1, 9]: 11 (100.0%) N (%) | Post-vaccination Responder N (%) [1, 9]: 7 (63.6%) N (%) | Fold increase from baseline, geometric mean ([1]; unspecified vaccines): 182.01 | Positive sample n (%) [1, 10]: 2 (100.0%) n (%) | S binding antibody concentration, geometric mean [1, 10]: 944.31 EU/mL | Positive sample n (%) [1, 11]: 0 n (%) | S binding antibody concentration, geometric mean [1, 11]: <LLOQ | Fold increase from baseline, geometric mean (95% CI) ([1]; viral vector vaccines): 7.76 (2.22; 27.11) | Responders (n/N) (%) (95% CI) ([1]; viral vector vaccines): 5 (71.4%) n/N (%) | Positive sample n (%) (95% CI) [1, 12]: 14 (82.4%) (56.57; 96.2) n (%) | S binding antibody concentration, geometric mean (95% CI) [1, 12]: 390.49 (140.01; 1089.07) EU/mL | Positive sample n (%) (95% CI) ([1]; viral vector vaccines, pre-vaccination): 2 (28.6%) (3.67; 70.96) n (%) | COVID-19 infection AEs leading to death, n (%) ([2]; >=14 D Post Vx): 0 n (%) | COVID-19 infection AEs leading to treatment discontinuation, n (%) ([2]; >=14 D Post Vx): 0 n (%) | COVID-19 infection AEs leading to treatment interruption, n (%) ([2]; >=14 D Post Vx): 4 (3.0%) n (%) | COVID-19 infection AEs, severity Mild, n (%) ([2]; >=14 D Post Vx): 13 (9.7%) n (%) | COVID-19 infection AEs, severity Moderate, n (%) ([2]; >=14 D Post Vx): 4 (3.0%) n (%) | COVID-19 infection AEs, severity Severe, n (%) ([2]; >=14 D Post Vx): 0 n (%) | Serious COVID-19 infection AEs, n (%) ([2]; >=14 D Post Vx): 0 n (%) | Subjects with COVID-19 infection AEs, n (%) ([2]; >=14 D Post Vx): 17 (12.7%) n (%) | COVID-19 infection AEs leading to death, n (%) ([2]; >=28 D Post Vx): 0 n (%) | COVID-19 infection AEs leading to treatment discontinuation, n (%) ([2]; >=28 D Post Vx): 0 n (%) | COVID-19 infection AEs leading to treatment interruption, n (%) ([2]; >=28 D Post Vx): 4 (3.0%) n (%) | COVID-19 infection AEs, severity Mild, n (%) ([2]; >=28 D Post Vx): 13 (9.7%) n (%) | COVID-19 infection AEs, severity Moderate, n (%) ([2]; >=28 D Post Vx): 4 (3.0%) n (%) | COVID-19 infection AEs, severity Severe, n (%) ([2]; >=28 D Post Vx): 0 n (%) | Serious COVID-19 infection AEs, n (%) ([2]; >=28 D Post Vx): 0 n (%) | Subjects with COVID-19 infection AEs, n (%) ([2]; >=28 D Post Vx): 17 (12.7%) n (%) | COVID-19 infection AEs leading to death, n (%) ([2]; Post-Vx): 0 n (%) | COVID-19 infection AEs leading to treatment discontinuation, n (%) ([2]; Post-Vx): 0 n (%) | COVID-19 infection AEs leading to treatment interruption, n (%) ([2]; Post-Vx): 4 (3.0%) n (%) | COVID-19 infection AEs, severity Mild, n (%) ([2]; Post-Vx): 13 (9.7%) n (%) | COVID-19 infection AEs, severity Moderate, n (%) ([2]; Post-Vx): 4 (3.0%) n (%) | COVID-19 infection AEs, severity Severe, n (%) ([2]; Post-Vx): 0 n (%) | Serious COVID-19 infection AEs, n (%) ([2]; Post-Vx): 0 n (%) | Subjects with COVID-19 infection AEs, n (%) ([2]; Post-Vx): 17 n (%) and 17 (12.7%) n (%) | COVID-19 infection AEs leading to death, n (%) ([2]; Pre-Vx): 0 n (%) | COVID-19 infection AEs leading to treatment discontinuation, n (%) ([2]; Pre-Vx): 0 n (%) | COVID-19 infection AEs leading to treatment interruption, n (%) ([2]; Pre-Vx): 5 (3.7%) n (%) | COVID-19 infection AEs, severity Mild, n (%) ([2]; Pre-Vx): 18 (13.4%) n (%) | COVID-19 infection AEs, severity Moderate, n (%) ([2]; Pre-Vx): 2 (1.5%) n (%) | COVID-19 infection AEs, severity Severe, n (%) ([2]; Pre-Vx): 0 n (%) | Serious COVID-19 infection AEs, n (%) ([2]; Pre-Vx): 0 n (%) | Subjects with COVID-19 infection AEs, n (%) ([2]; Pre-Vx): 20 n (%) and 20 (14.9%) n (%) | COVID-19 infection AEs leading to treatment interruption, n (%) ([2]; Total): 7 (5.2%) n (%) | COVID-19 infection AEs, severity Mild, n (%) ([2]; Total): 28 (20.9%) n (%) | COVID-19 infection AEs, severity Moderate, n (%) ([2]; Total): 6 (4.5%) n (%) | Subjects with COVID-19 infection AEs, n (%) ([2]; Total): 33 (24.6%) n (%) | Plasma drug levels after wash-out (Group 3, after a 2-day wash-out period): cleared from plasma | Plasma drug levels (Groups 2 and 3, by Day 5, ponesimod chow 1000 ppm): sufficiently high to reduce lymphocyte counts | Inhibition titer: dilution from neat serum that results in 50% inhibition of viral infection (ID50) (influenza A/PR/8/34; Concomitant (Group 2), Day 35): 0.004 | Inhibition titer: dilution from neat serum that results in 50% inhibition of viral infection (ID50) (influenza A/PR/8/34; Concomitant (Group 2), Day 63): 0.003 | Inhibition titer: dilution from neat serum that results in 50% inhibition of viral infection (ID50) (influenza A/PR/8/34; Concomitant (Group 2), Day 91): 0.004 | Inhibition titer: dilution from neat serum that results in 50% inhibition of viral infection (ID50) (influenza A/PR/8/34; Concomitant (Group 2, continuous ponesimod chow 1000 ppm), Day −1): 0.050 | Inhibition titer: dilution from neat serum that results in 50% inhibition of viral infection (ID50) (influenza A/PR/8/34; Discontinued (Group 3), Day 35): 0.001 | Inhibition titer: dilution from neat serum that results in 50% inhibition of viral infection (ID50) (influenza A/PR/8/34; Discontinued (Group 3), Day 63): 0.002 | Inhibition titer: dilution from neat serum that results in 50% inhibition of viral infection (ID50) (influenza A/PR/8/34; Discontinued (Group 3), Day 91): 0.003 | Inhibition titer: dilution from neat serum that results in 50% inhibition of viral infection (ID50) (influenza A/PR/8/34; Discontinued (Group 3, 4-day discontinuation around immunization), Day −1): 0.001 | Vaccine (antibody) response compared to control mice (influenza A/PR/8/34; Group 2, continuously on ponesimod chow, inactivated H1N1 influenza vaccine): attenuated vaccine response; also recorded: blunted, but not absent

CCc1cc(/C(C)=N/OCc2ccc(C3CCCCC3)c(C(F)(F)F)c2)ccc1CN1CC(C(=O)O)C1 [siponimod]
Vaccination response to the influenza vaccine (influenza vaccine): reduced vaccination response
